Patent publication US20160193206A1, “BET-PROTEIN-INHIBITING DIHYDROPYRIDOPYRAZINONES” (BAYER PHARMA AKTIENGESELLSCHAFT, priority 2012, published 2016)

What was measured:
[1] = target: T1, BRD4 bromo domain 1 [BRD4(1)] (Homo sapiens, UniProt O60885); experiment: BRD4(1)/acetylated peptide H4 binding assay (TR-FRET); details: inhibition of interaction between His6-tagged BRD4(1) (amino acids 67-152) and acetylated histone H4 peptide
T1 construct: N-terminally His6-tagged BRD4(1) (amino acids 67-152); made in house; host or cells: E. coli
How it was run: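 TR-FRET measured displacement of a biotinylated tetra-acetylated H4 peptide from His6-BRD4(1) (aa 67-152, E. coli-expressed, typically 10 nM) in HEPES pH 7.5 buffer. Compounds were tested at 11 concentrations (0.1 nM–20 μM), with 10 min preincubation, then 1 h at 22 °C and ≥3 h at 4 °C. The 665/620 nm ratio gave IC50 by 4-parameter fit.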

MOLM-13 cell line = experiment: MOLM-13 cell proliferation assay (alamarBlue); assay type: cell-based; details: Homo sapiens, inhibition of proliferation of MOLM-13 cells (acute myeloid leukaemia), 96 hours incubation
Procedure: In accordance with the invention, the substances were tested for their ability to inhibit the proliferation of the MOLM-13 cell linie (Deutsche Sammlung für Mikroorganismen und Zellkulturen [German Collection of Microorganisms and Cell Cultures], ACC 554; acute myeloid leukaemia). Cell viability was determined by means of the alamarBlue® reagent (Invitrogen) in a Victor X3 Multilabel Reader (Perkin Elmer). The excitation wavelength was 530 nm and the emission wavelength […].
The MOLM-13 cells were sown at a density of 4000 cells/well in 100 μl of growth medium on 96-well microtitre plates. After overnight incubation at 37° C., the fluorescence values were determined (CI values). The plates were then treated with various substance dilutions and incubated at 37° C. for 96 hours. Subsequently, the fluorescence values were determined (CO values). For the data analysis, the CI values were subtracted from the CO values and the results were compared between cells which had been treated with various dilutions of the substance or only with buffer solution. The IC50 values (substance concentration needed for 50% inhibition of cell proliferation) were calculated therefrom.

[2] = target: T2, BRD4 bromo domain 2 [BRD4(2)] (Homo sapiens, UniProt O60885); experiment: BRD4(2)/acetylated peptide H4 binding assay (TR-FRET); details: inhibition of interaction between His6-tagged BRD4(2) (amino acids 357-445) and acetylated histone H4 peptide
T2 construct: N-terminally His6-tagged BRD4(2) (amino acids 357-445); made in house; host or cells: E. coli
How it was run: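 TR-FRET displacement of biotinylated tetra-acetylated H4 peptide from His6-BRD4(2) (aa 357-445, E. coli-expressed), 100 nM final, in HEPES pH 7.5 buffer; 11 compound concentrations 0.1 nM-20 μM, 10 min preincubation, then 1 h 22 °C plus ≥3 h 4 °C. 665/620 ratio read; IC50 by 4-parameter fit.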

Row | SMILES | IC50 [1] [µM] | IC50 (MOLM-13 cell line) [µM] | IC50 [2] [µM]
1 | C[C@@H]1C(=O)N(C)c2ccc(Nc3ccc(C(=O)NC4CCC(O)CC4)cc3)nc2N1Cc1ccccc1 (stereo partly drawn) [Example 42, 4-{[(3R)-4-Benzyl-1,3-dimethyl-2-oxo-1,2,3,4-tetrahydropyrido[2,3-b]pyrazin-6-yl]amino}-N-(4-hydroxycyclohexyl)benzamide] | 0.156 | 0.326 | 0.099
2 | COc1cc(C(=O)NCCN(C)C)ccc1Nc1ccc2c(n1)N(C(C)C)[C@H](C)C(=O)N2C [Example 5, N-[2-(Dimethylamino)ethyl]-4-{[(3R)-1,3-dimethyl-2-oxo-4-(propan-2-yl)-1,2,3,4-tetrahydropyrido[2,3-b]pyrazin-6-yl]amino}-3-methoxybenzamide] | 0.093 | 0.503 | –
3 | CC(C)N1CCN(S(=O)(=O)c2ccc(Nc3ccc4c(n3)N(C3CCOCC3)[C@H](C)C(=O)N4C)cc2)CC1 [Example 16, (3R)-1,3-Dimethyl-6-[(4-{[4-(propan-2-yl)piperazin-1-yl]sulphonyl}phenyl)amino]-4-(tetrahydro-2H-pyran-4-yl)-3,4-dihydropyrido[2,3-b]pyrazin-2(1H)-one] | 0.286 | – | 0.212
4 | Cc1cc(C(=O)NCCN(C)C)ccc1Nc1ccc2c(n1)N(C1CCOCC1)[C@H](C)C(=O)N2C [Example 63, N-[2-(Dimethylamino)ethyl]-4-{[(3R)-1,3-dimethyl-2-oxo-4-(tetrahydro-2H-pyran-4-yl)-1,2,3,4-tetrahydropyrido[2,3-b]pyrazin-6-yl]amino}-3-methylbenzamide] | 0.262 | – | 0.206
5 | C[C@@H]1C(=O)N(C)c2ccc(Nc3ccc(C(=O)NC4CCC(N5CCC(F)(F)CC5)CC4)cc3)nc2N1C1CCCCC1 (stereo partly drawn) [Example 71, 4-{[(3R)-4-Cyclohexyl-1,3-dimethyl-2-oxo-1,2,3,4-tetrahydropyrido[2,3-b]pyrazin-6-l]amino}-N-[4-(4,4-difluoropiperidin-1-yl)cyclohexyl]benzamide] | 0.961 | – | 0.445
6 | C[C@@H]1C(=O)N(C)c2ccc(Nc3ccc(C(=O)N4CC5(CCS5(=O)=O)C4)cc3)nc2N1C1CCCC1 [Example 7, (3R)-4-Cyclopentyl-6-({4-[(1,1-dioxido-1-thia-6-azaspiro[3.3]hept-6-yl)carbonyl]phenyl}amino)-1,3-dimethyl-3,4-dihydropyrido[2,3-b]pyrazin-2(1H)-one] | 0.091 | 0.377 | –
7 | COc1cc(C(=O)NCc2ccccn2)ccc1Nc1ccc2c(n1)N(C1CCOCC1)[C@H](C)C(=O)N2C [Example 47, 4-{[(3R)-1,3-Dimethyl-2-oxo-4-(tetrahydro-2H-pyran-4-yl)-1,2,3,4-tetrahydropyrido[2,3-b]pyrazin-6-yl]amino}-3-methoxy-N-(pyridin-2-ylmethyl)benzamide] | 0.201 | – | 0.112
8 | C[C@@H]1C(=O)N(C)c2ccc(Nc3ccc(S(=O)(=O)N(C)C)cc3)nc2N1C1CCCCC1 [Example 17, 4-{[(3R)-4-Cyclohexyl-1,3-dimethyl-2-oxo-1,2,3,4-tetrahydropyrido[2,3-b]pyrazin-6-yl]amino}-N,N-dimethylbenzenesulphonamide] | 0.308 | – | 0.111
9 | C[C@@H]1C(=O)N(C)c2ccc(Nc3ccc(C(=O)N4CCN(C(=O)OC(C)(C)C)CC4)cc3)nc2N1Cc1ccccc1 [Example 76, tert-Butyl 4-(4-{[(3R)-4-benzyl-1,3-dimethyl-2-oxo-1,2,3,4-tetrahydropyrido[2,3-b]pyrazin-6-yl]amino}benzoyl)piperazine-1-carboxylate] | 0.84 | – | 0.273
10 | COCCN1c2nc(Nc3ccc(C(=O)N[C@H]4CC[C@H](N5CCN(CC6CC6)CC5)CC4)cc3)ccc2N(C)C(=O)C1C (stereo partly drawn) [Example 105, N-{trans-4-[4-(Cyclopropylmethyl)piperazin-1-yl]cyclohexyl}-4-{[4-(2-methoxyethyl)-1,3-dimethyl-2-oxo-1,2,3,4-tetrahydropyrido[2,3-b]pyrazin-6-yl]amino}benzamide] | 0.452 | – | 0.187

Continued, values first:

Row | IC50 [1] [µM] | IC50 (MOLM-13 cell line) [µM] | IC50 [2] [µM] | SMILES
11 | 0.255 | 0.762 | – | COc1cc(C(=O)NC2CCCC2)ccc1Nc1ccc2c(n1)N(C(C)C)[C@H](C)C(=O)N2C [Example 6, N-Cyclopentyl-4-{[(3R)-1,3-dimethyl-2-oxo-4-(propan-2-yl)-1,2,3,4-tetrahydropyrido[2,3-b]pyrazin-6-yl]amino}-3-methoxybenzamide]
12 | 0.165 | 0.623 | 0.23 | COc1cc(C(=O)N2CC3(CCS3(=O)=O)C2)ccc1Nc1ccc2c(n1)N(C1CCCC1)[C@H](C)C(=O)N2C [Example 10, (3R)-4-Cyclopentyl-6-({4-[(1,1-dioxido-1-thia-6-azaspiro[3.3]hept-6-yl)carbonyl]-2-methoxyphenyl}amino)-1,3-dimethyl-3,4-dihydropyrido[2,3-b]pyrazin-2(1H)-one]
13 | 0.154 | 0.353 | 0.135 | COc1cc(C(=O)NCCN2CCN(C)CC2)ccc1Nc1ccc2c(n1)N(C1CCCCCC1)[C@H](C)C(=O)N2C [Example 91, 4-{[(3R)-4-Cycloheptyl-1,3-dimethyl-2-oxo-1,2,3,4-tetrahydropyrido[2,3-b]pyrazin-6-yl]amino}-3-methoxy-N-[2-(4-methylpiperazin-1-yl)ethyl]benzamide]
14 | 0.052 | 0.461 | – | COc1cc(C(=O)NCCN(C)C)ccc1Nc1ccc2c(n1)N(C1CCOCC1)[C@H](C)C(=O)N2C [Example 46, N-[2-(Dimethyalmino)ethyl]-4-{[(3R)-1,3-dimethyl-2-oxo-4-(tetrahydro-2H-pyran-4-yl)-1,2,3,4-tetrahydropyrido[2,3-b]pyrazin-6-yl]amino}-3-methoxybenzamide]
15 | 0.357 | – | 0.354 | Cc1cc(C(=O)NC2CCN(C)CC2)ccc1Nc1ccc2c(n1)N(C1CCOCC1)[C@H](C)C(=O)N2C [Example 54, 4-{[(3R)-1,3-Dimethyl-2-oxo-4-(tetrahydro-2H-pyran-4-yl)-1,2,3,4-tetrahydropyrido[2,3-b]pyrazin-6-yl]amino}-3-methyl-N-(1-methylpiperidin-4-yl)benzamide]
16 | 0.3 | – | 0.156 | COc1cc(C(=O)N2CC3(CCS3(=O)=O)C2)ccc1Nc1ccc2c(n1)N(C1CCCCC1)[C@H](C)C(=O)N2C [Example 74, (3R)-4-Cyclohexyl-6-({4-[(1,1-dioxido-1-thia-6-azaspiro[3.3]hept-6-yl)carbonyl]-2-methoxyphenyl}amino)-1,3-dimethyl-3,4-dihydropyrido[2,3-b]pyrazin-2(1H)-one]
17 | 0.339 | – | 0.212 | COc1cc(C(=O)NC2CCC(O)CC2)ccc1Nc1ccc2c(n1)N(C1CCOCC1)[C@H](C)C(=O)N2C (stereo partly drawn) [Example 60, 4-{[(3R)-1,3-Dimethyl-2-oxo-4-(tetrahydro-2H-pyran-4-yl)-1,2,3,4-tetrahydropyrido[2,3-b]pyrazin-6-yl]amino}-N-(4-hydroxycyclohexyl)-3-methoxybenzamide]
18 | 0.329 | – | 0.08 | C[C@@H]1C(=O)N(C)c2ccc(Nc3ccc(C(=O)N4CC5(CCS5(=O)=O)C4)cc3)nc2N1C1CCCCCC1 [Example 33, (3R)-4-Cycloheptyl-6-({4-[(1,1-dioxido-1-thia-6-azaspiro[3.3]hept-6-yl)carbonyl]phenyl}amino)-1,3-dimethyl-3,4-dihydropyrido[2,3-b]pyrazin-2(1H)-one]
